Assay results published in patent US9359378B2, “Substituted oxazolo[3,4-a]pyrazines as pharmaceutcals” (BIOLAB SANUS FARMACÊUTICA LTDA., priority 2014, dated 2016).

Experiments:
PDE8A1 = molecular target: T1, PDE8A1 (Homo sapiens, UniProt O60658); assay: PDE8A1 enzyme inhibition (HTRF, cAMP substrate); format: biochemical; conditions: human recombinant enzyme (Sf9); FIGS. 14 and 15; test concentration not given
T1 construct: host or cells: Sf9
From the text: (§1) The effects of the BL-230 and BL-236 compounds on the activity of the human enzymes PDE2A1, PDE3A, PDE4A1A, PDE4B1, PDE7A, PDE8A1, and PDE10A2 and PDE11A4 were quantified by measuring the production of adenosine 5′-monophosphate (5′AMP) from cyclic adenosine monophosphate (cAMP), with human recombinant enzyme expressed in Sf9 cells and the detection method was by using HTRF®.
(§2) The test compound, the reference compound or water (control) were mixed with the enzyme (the enzymes and their amounts used are described in Table 1) in a buffer containing 44.4 mM Tris-HCl, 5.28 mM MgCl2, 2.64 mM DTT and 0.044% Tween® 20 (pH 7.8). Then, the reaction was initiated by the addition of 40 nM of cAMP substrate and the mixture was incubated for 30 minutes at room temperature. For basal control measurements, the enzyme was omitted from the reaction mixture. The fluorescence acceptor (Dye2 labeled cAMP) and fluorescence donor (anti-cAMP antibody labeled with europium cryptate) were added in the presence of 1 mM IBMX. After 60 minutes, the fluorescence corresponding to the amount of transfer residual cAMP was measured at λex=337 nm, λem=620 nm and λem=665 nm using a microplate reader (RubyStar, BMG). The enzyme activity was determined by the signal division measured at 665 nm, by the measured signal at 620 nm (right). The results were expressed as a inhibition percentage of the control enzyme activity. […]

PDE10A2 = molecular target: T2, PDE10A2 (Homo sapiens, UniProt Q9Y233); assay: PDE10A2 enzyme inhibition (HTRF, cAMP substrate); format: biochemical; conditions: human recombinant enzyme (Sf9); FIG. 14; test concentration not given
T2 construct: host or cells: Sf9
T2 sequence (Q9Y233 267-1055): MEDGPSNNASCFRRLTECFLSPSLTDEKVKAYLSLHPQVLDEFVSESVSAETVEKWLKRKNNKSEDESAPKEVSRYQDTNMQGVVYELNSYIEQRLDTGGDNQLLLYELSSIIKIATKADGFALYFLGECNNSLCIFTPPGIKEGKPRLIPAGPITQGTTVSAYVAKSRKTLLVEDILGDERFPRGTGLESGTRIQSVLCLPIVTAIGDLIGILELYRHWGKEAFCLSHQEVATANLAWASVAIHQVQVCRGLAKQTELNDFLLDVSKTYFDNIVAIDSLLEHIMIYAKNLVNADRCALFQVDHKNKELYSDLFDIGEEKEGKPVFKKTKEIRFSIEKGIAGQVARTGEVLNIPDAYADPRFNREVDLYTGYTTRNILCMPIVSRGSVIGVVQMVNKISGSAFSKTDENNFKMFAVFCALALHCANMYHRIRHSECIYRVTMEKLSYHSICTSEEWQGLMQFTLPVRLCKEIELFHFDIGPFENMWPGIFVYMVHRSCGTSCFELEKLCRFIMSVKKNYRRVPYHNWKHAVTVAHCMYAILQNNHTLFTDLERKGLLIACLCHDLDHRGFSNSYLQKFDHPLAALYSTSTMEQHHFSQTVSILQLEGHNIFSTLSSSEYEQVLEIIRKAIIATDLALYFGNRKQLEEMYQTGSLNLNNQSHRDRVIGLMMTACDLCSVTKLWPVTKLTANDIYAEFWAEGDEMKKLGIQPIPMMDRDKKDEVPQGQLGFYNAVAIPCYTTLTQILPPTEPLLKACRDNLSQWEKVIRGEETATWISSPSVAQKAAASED
From the text: as §1, §2

[1] = test system: rabbit's corpus cavernosum; assay: Relaxing effect in isolated rabbit's corpus cavernosum strips pre-contracted with phenylephrine (isometric tension); parameters: species or system New Zealand White rabbits; conditions: for tissue relaxation of phenylephrine-contracted corpus cavernosum: 1 μM compound, contraction induced by 1 μM phenylephrine (PE), FIGS. 8-10; for percentage of relaxation in rabbit's corpus cavernosum: FIGS. 12 and 13
Protocol: For this study, New Zealand White rabbits (2 to 3.5 kg) were used to obtain penile tissue which was excised and transferred to a chilled Krebs solution. For this study, we used cavernosum strips (CC) of the penile tissue of New Zealand White rabbits. The strips were mounted in 10 ml tissue incubation chambers containing Krebs solution at 37° C., pH occurring between 7.3 and 7.5; continuously bubbled with a mixture of 95% oxygen (O2) and 5% carbon dioxide (CO2). An initial tension of 10 mN were applied on the tissues, followed by a 60 minute stabilization period. Changes in tension (isometric force) were obtained using isometric transducers (ADInstruments, Australia) and recorded in a data acquisition system PowerLab 4/30 (Chart Software, version 7.3.7, ADInstruments, MA, USA for BL-230 and version 7.0 ADInstruments, MA for the BL-236). […] Cumulative curve responses to the concentration of BL-230 compounds and tadalafil (0.001 to 10 μM) were obtained in the pre-contracted rabbit corpus cavernosum strips with 1 μM PE.

PDE11A4 = molecular target: T3, PDE11A4 (Homo sapiens, UniProt Q9HCR9); assay: PDE11A4 enzyme inhibition (HTRF, cAMP substrate); format: biochemical; conditions: human recombinant enzyme (Sf9); FIGS. 14 and 15; test concentration not given
T3 construct: host or cells: Sf9
T3 sequence (Q9HCR9 whole entry): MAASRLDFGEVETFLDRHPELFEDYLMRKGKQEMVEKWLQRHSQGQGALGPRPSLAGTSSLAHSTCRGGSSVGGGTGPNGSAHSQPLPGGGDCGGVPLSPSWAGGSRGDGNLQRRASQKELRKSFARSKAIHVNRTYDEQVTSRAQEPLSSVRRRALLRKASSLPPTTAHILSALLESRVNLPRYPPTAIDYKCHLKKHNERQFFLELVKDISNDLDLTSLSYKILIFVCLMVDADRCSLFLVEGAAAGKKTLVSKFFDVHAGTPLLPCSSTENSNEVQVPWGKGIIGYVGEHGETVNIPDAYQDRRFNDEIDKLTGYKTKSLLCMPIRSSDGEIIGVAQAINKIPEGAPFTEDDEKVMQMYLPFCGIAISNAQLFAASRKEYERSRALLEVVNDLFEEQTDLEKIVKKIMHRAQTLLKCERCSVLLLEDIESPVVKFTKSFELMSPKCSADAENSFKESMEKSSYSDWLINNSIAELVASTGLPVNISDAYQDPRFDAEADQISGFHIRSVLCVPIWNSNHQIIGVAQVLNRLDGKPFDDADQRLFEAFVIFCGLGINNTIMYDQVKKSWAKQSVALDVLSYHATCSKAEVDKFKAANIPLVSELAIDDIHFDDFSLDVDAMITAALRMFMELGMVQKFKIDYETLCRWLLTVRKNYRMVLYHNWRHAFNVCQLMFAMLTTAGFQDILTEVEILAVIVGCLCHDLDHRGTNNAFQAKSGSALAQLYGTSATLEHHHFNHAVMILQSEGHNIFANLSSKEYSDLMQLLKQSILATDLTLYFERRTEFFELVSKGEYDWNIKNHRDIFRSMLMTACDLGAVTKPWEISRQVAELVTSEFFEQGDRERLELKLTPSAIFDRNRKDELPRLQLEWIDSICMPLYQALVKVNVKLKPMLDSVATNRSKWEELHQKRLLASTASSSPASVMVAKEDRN
From the text: as §1, §2

[2] = strips pre-contracted with 1 μM PE

T1 sequence (O60658 whole entry): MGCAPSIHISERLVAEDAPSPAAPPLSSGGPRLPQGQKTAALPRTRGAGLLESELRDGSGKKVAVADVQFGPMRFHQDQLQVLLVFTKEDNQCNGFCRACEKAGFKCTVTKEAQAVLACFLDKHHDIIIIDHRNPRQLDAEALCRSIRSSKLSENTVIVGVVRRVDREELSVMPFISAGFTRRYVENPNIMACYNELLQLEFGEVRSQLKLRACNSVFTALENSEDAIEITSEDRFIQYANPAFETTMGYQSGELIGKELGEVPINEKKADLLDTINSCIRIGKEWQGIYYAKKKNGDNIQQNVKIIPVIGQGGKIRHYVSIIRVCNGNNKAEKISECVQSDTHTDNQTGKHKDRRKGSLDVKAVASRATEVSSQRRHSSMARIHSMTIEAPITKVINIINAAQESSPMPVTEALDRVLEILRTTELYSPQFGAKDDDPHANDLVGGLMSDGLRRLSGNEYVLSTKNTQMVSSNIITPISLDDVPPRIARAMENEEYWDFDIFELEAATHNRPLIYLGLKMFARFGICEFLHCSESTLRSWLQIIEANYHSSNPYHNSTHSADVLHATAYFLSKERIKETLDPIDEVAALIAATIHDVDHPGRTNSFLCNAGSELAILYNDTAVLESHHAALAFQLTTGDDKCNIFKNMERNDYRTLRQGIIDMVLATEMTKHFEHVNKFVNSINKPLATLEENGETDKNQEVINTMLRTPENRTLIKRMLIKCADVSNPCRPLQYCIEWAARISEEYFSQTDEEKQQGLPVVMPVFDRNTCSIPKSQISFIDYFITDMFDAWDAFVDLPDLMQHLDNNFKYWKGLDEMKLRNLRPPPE

Row | inhibition of PDE8A1 enzyme activity (PDE8A1) | inhibition of PDE10A2 enzyme activity (PDE10A2) | inhibition of PDE11A4 enzyme activity (PDE11A4) | Structure (SMILES) | tissue relaxation of phenylephrine-contracted corpus cavernosum [1] | cumulative concentration-response relaxation ([1]; 0.001 to 10 μM, strips pre-contracted with 1 μM PE, FIG. 11) | percentage of relaxation in rabbit's corpus cavernosum [1, 2]
1 | did not inhibit | 35% | 75% | O=C1C2=C(c3c[nH]c4ccccc34)OC(c3ccc4c(c3)OCO4)N2C(=O)CN1CCO (stereo not shown) [BL-230, 3-(benzo[d][1,3]dioxol-5yl)-7-(2-hydroxyethyl)-1-(1H-indol-3-yl)-6,7-dihydro-3H-oxazolo[3,4-a]pyrazine-5,8-dione] | produced tissue relaxation shape similar to that of tadalafil | dose-dependent relaxation similar to that observed for tadalafil | 78.47%
2 | did not inhibit | – | 80% | C[C@@H](CO)N1CC(=O)N2C(=C(c3c[nH]c4ccccc34)OC2c2ccc3c(c2)OCO3)C1=O (stereo partly drawn) [BL-236, 3-(benzo[d][1,3]dioxol-5yl)-7-((S)1-hydroxypropan-2yl)-1-(1H-indol-3-yl)-6,7-dihydro-3H-oxazolo[3,4-a]pyrazine-5,8-dione] | produced tissue relaxation shape similar to that of tadalafil | – | 93.05%
